Assay results from paper PMC8206213, “An L-2-hydroxyglutarate biosensor based on specific transcriptional regulator LhgR” (Nature Communications, 2021).
Several values for one entry are separate records, joined by “and”; a condition that tells them apart may be missing. Equal entries are not always repeated.

How the values were obtained:
[1] = test system: LhgR; experiment: EMSA, effect of compounds on LhgR binding to the lhgR promoter region F2; set-up: species or system Pseudomonas putida W619; conditions: 30 mM compound, 10 nM F2, 70 nM LhgR
Experimental: Electrophoretic mobility shift assays (EMSAs) were carried out using the DNA fragment (F1 or F2) and purified LhgR. The DNA fragments were first amplified by primer pairs F1-F/F1-R and F2-F/F2-R, respectively. Then, either fragment at a concentration of 10 nM DNA was incubated with LhgR (0–160 nM) in 20 μL EMSA binding buffer (10 mM Tris-HCl [pH 7.4], 50 mM KCl, 0.5 mM EDTA, 10% [vol/vol] glycerol, and 1 mM dithiothreitol [DTT]). The binding reactions were carried out at 30 °C for 30 min. Electrophoresis was performed on 6% native polyacrylamide gels at 4 °C and 170 V (constant voltage) for about 45 min, followed by staining with SYBR green I (TaKaRa, China) and photographing. Analysis of the interaction between lhgO promoter region (F1) and LHGFR was performed using the same procedure.
To characterize the effector of LhgR, purified LhgR was first incubated with L-lysine, 5-aminovalerate, glutarate, L-2-HG, D-2-HG, 2-KG, or succinate at 30 °C for 15 min, followed by incubation with the added DNA fragments at 30 °C for 30 min. The mixtures were subsequently subjected to electrophoresis.

[2] = test system: LHGFR0N7C; experiment: Specificity of purified LHGFR0N7C, emission ratio with 240 μM compounds; format: binding, Pseudomonas putida W619; conditions: 240 μM compound
[3] = test system: LHGFR0N7C; experiment: Influence of other compounds on the response of purified LHGFR0N7C to L-2-HG; format: binding, Pseudomonas putida W619
How it was run: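 Purified L-2-HG biosensors were mixed 3:1 with test compounds in 50 mM Tris-HCl pH 7.4, excited at 430 nm, and the 528 nm (Venus)/485 nm (mTFP) emission was read. Responses were fitted with a Hill model giving apparent Kd and Hill slope.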

[4] = test system: LHGFR0N7C expressed in E. coli BL21(DE3); experiment: Specificity of LHGFR0N7C expressed in E. coli BL21(DE3), 1 mM compounds; format: cell-based; conditions: Supplementary Fig. 13c
Experimental: To characterize the sensitivity and specificity of LHGFR expressed in E. coli BL21(DE3), 90 μL cell suspensions following 8 h carbon starvation were mixed with 10 μL increasing concentrations of L-2-HG or other compounds, and then added into a black 96-well plate (total 100 μL/per well), the fluorescence intensities were determined using an EnSight microplate reader (PerkinElmer, USA) and the following instrument settings: excitation at 430 nm, emission at 485 nm (mTFP) and 528 nm (Venus), time intervals of 5 min, the temperature at 37 °C, and shake at 180 rpm.

[5] = test system: LHGFR0N7C expressed in HEK293FT cells; experiment: Specificity of LHGFR0N7C expressed in permeabilized HEK293FT cells, 1 mM compounds; format: cell-based, human (HEK293FT cells); conditions: Supplementary Fig. 17d; Control about 1
Experimental: To characterize the sensitivity and specificity of LHGFR expressed in HEK293FT cells, cells were trypsinized 48 h following transfection and suspended in 1× Hank’s balanced salt solution supplemented with 20 mM HEPES. […] Digitonin at a concentration of 10 μM was used to induce cell permeabilization and deplete intracellular L-2-HG for in vivo response curves construction. Then, the fluorescence intensities were determined by a SpectraMax i3 fluorescence plate reader (Molecular Devices, USA) with excitation at 430 nm and emission at 485 nm (mTFP) and 528 nm (Venus). Basal L-2-HG concentration in HEK293FT cells under physiological conditions was determined by substituting the emission ratios of non-permeabilized HEK293FT cells into the calibrated in vivo response curves.

O=C(O)CC[C@H](O)C(=O)O [L-2-HG, L-2-Hydroxyglutarate]
Effect on LhgR binding to the lhgR promoter region F2 [1]: prevent LhgR binding to the lhgR promoter
Emission ratio [2]: 2.5923 and 2.613 and 2.627
Emission ratio of 528/485 ([3]; L-2-HG concentration 0.01, in the absence of 2-KG, Suppl. Fig. 9h): 1.669 and 1.681 and 1.673
Emission ratio of 528/485 ([3]; L-2-HG concentration 0.01, in the absence of D-2-HG, Suppl. Fig. 9f): 1.668 and 1.665 and 1.6772
Emission ratio of 528/485 ([3]; L-2-HG concentration 0.01, in the presence of 2-KG, Suppl. Fig. 9h): 1.723
Emission ratio of 528/485 ([3]; L-2-HG concentration 0.01, in the presence of D-2-HG, Suppl. Fig. 9f): 1.965 and 1.961 and 1.978
Emission ratio of 528/485 ([3]; L-2-HG concentration 0.1, in the absence of D-2-HG, Suppl. Fig. 9f): 1.677 and 1.673 and 1.693
Emission ratio of 528/485 ([3]; L-2-HG concentration 0.1, in the presence of D-2-HG, Suppl. Fig. 9f): 1.971 and 1.964 and 1.956
Emission ratio of 528/485 ([3]; L-2-HG concentration 0.2, in the absence of D-2-HG, Suppl. Fig. 9f): 1.691 and 1.69 and 1.731
Emission ratio of 528/485 ([3]; L-2-HG concentration 0.2, in the presence of D-2-HG, Suppl. Fig. 9f): 1.971 and 1.94 and 1.9794
Emission ratio of 528/485 ([3]; L-2-HG concentration 1, in the absence of D-2-HG, Suppl. Fig. 9f): 1.801 and 1.777 and 1.826
Emission ratio of 528/485 ([3]; L-2-HG concentration 1, in the presence of D-2-HG, Suppl. Fig. 9f): 2.027 and 1.982 and 2.045
Emission ratio of 528/485 ([3]; L-2-HG concentration 2, in the absence of D-2-HG, Suppl. Fig. 9f): 1.915 and 1.897 and 1.932
Emission ratio of 528/485 ([3]; L-2-HG concentration 2, in the presence of D-2-HG, Suppl. Fig. 9f): 2.096 and 2.057 and 2.13
Emission ratio of 528/485 ([3]; L-2-HG concentration 10, in the absence of D-2-HG, Suppl. Fig. 9f): 2.29 and 2.251 and 2.3138
Emission ratio of 528/485 ([3]; L-2-HG concentration 10, in the presence of D-2-HG, Suppl. Fig. 9f): 2.341 and 2.308 and 2.373
Emission ratio of 528/485 ([3]; L-2-HG concentration 20, in the absence of 2-KG, Suppl. Fig. 9h): 2.356 (2×) and 2.408
Emission ratio of 528/485 ([3]; L-2-HG concentration 20, in the absence of D-2-HG, Suppl. Fig. 9f): 2.392 and 2.365 and 2.398
Emission ratio of 528/485 ([3]; L-2-HG concentration 20, in the presence of 2-KG, Suppl. Fig. 9h): 2.43 and 2.42 and 2.428
Emission ratio of 528/485 ([3]; L-2-HG concentration 20, in the presence of D-2-HG, Suppl. Fig. 9f): 2.458 and 2.457 and 2.465
Emission ratio of 528/485 ([3]; L-2-HG concentration 100, in the absence of 2-KG, Suppl. Fig. 9h): 2.538 and 2.5321 and 2.598
Emission ratio of 528/485 ([3]; L-2-HG concentration 100, in the absence of D-2-HG, Suppl. Fig. 9f): 2.581 and 2.561 and 2.566
Emission ratio of 528/485 ([3]; L-2-HG concentration 100, in the presence of 2-KG, Suppl. Fig. 9h): 2.5747 and 2.606 and 2.576
Emission ratio of 528/485 ([3]; L-2-HG concentration 100, in the presence of D-2-HG, Suppl. Fig. 9f): 2.5851 and 2.631 and 2.587
Emission ratio of 528/485 ([3]; L-2-HG concentration 200, in the absence of 2-KG, Suppl. Fig. 9h): 2.539 and 2.563 and 2.555
Emission ratio of 528/485 ([3]; L-2-HG concentration 200, in the absence of D-2-HG, Suppl. Fig. 9f): 2.5575 and 2.555 and 2.59
Emission ratio of 528/485 ([3]; L-2-HG concentration 200, in the presence of 2-KG, Suppl. Fig. 9h): 2.617 and 2.618 and 2.612
Emission ratio of 528/485 ([3]; L-2-HG concentration 200, in the presence of D-2-HG, Suppl. Fig. 9f): 2.597 and 2.613 and 2.641
Emission ratio of 528/485 ([3]; L-2-HG concentration 1000, in the absence of 2-KG, Suppl. Fig. 9h): 2.624 and 2.621 and 2.641
Emission ratio of 528/485 ([3]; L-2-HG concentration 1000, in the absence of D-2-HG, Suppl. Fig. 9f): 2.621 and 2.615 and 2.63
Emission ratio of 528/485 ([3]; L-2-HG concentration 1000, in the presence of 2-KG, Suppl. Fig. 9h): 2.674 and 2.614 and 2.6567
Emission ratio of 528/485 ([3]; L-2-HG concentration 1000, in the presence of D-2-HG, Suppl. Fig. 9f): 2.625 and 2.6112 and 2.6354
Emission ratio of 528/485 ([3]; L-2-HG concentration 2000, in the absence of 2-KG, Suppl. Fig. 9h): 2.674 and 2.655 and 2.638
Emission ratio of 528/485 ([3]; L-2-HG concentration 2000, in the absence of D-2-HG, Suppl. Fig. 9f): 2.642 and 2.658 and 2.618
Emission ratio of 528/485 ([3]; L-2-HG concentration 2000, in the presence of 2-KG, Suppl. Fig. 9h): 2.683 and 2.662 and 2.678
Emission ratio of 528/485 ([3]; L-2-HG concentration 2000, in the presence of D-2-HG, Suppl. Fig. 9f): 2.621 and 2.633 and 2.649
Emission ratio ([3]; Suppl. Fig. 9b, L-2-HG alone or with the compound, three replicates): 2.613 and 2.611 and 2.604
normalized emission ratio of biosensor expressed in E. coli ([4]; time 0 min): 1.016 and 1.006 and 1.026
normalized emission ratio of biosensor expressed in E. coli ([4]; time 5 min): 1.0991 and 1.081 and 1.1
normalized emission ratio of biosensor expressed in E. coli ([4]; time 10 min): 1.206 and 1.179 and 1.184
normalized emission ratio of biosensor expressed in E. coli ([4]; time 15 min): 1.293 and 1.273 and 1.276
normalized emission ratio of biosensor expressed in E. coli ([4]; time 20 min): 1.341 and 1.328 and 1.319
normalized emission ratio of biosensor expressed in E. coli ([4]; time 25 min): 1.35 and 1.357 and 1.333
normalized emission ratio of biosensor expressed in E. coli ([4]; time 30 min): 1.374 and 1.365 and 1.366
normalized emission ratio of biosensor expressed in E. coli ([4]; time 35 min): 1.386 and 1.367 and 1.374
normalized emission ratio of biosensor expressed in E. coli ([4]; time 40 min): 1.391 and 1.384 and 1.386
normalized emission ratio of biosensor expressed in E. coli ([4]; time 45 min): 1.414 and 1.39 and 1.389
normalized emission ratio of biosensor expressed in E. coli ([4]; time 50 min): 1.407 and 1.378 and 1.396
normalized emission ratio of biosensor expressed in E. coli ([4]; time 55 min): 1.415 and 1.39 and 1.4085
normalized emission ratio of biosensor expressed in E. coli ([4]; time 60 min): 1.43 and 1.394 and 1.408
normalized emission ratio of biosensor expressed in E. coli ([4]; time 65 min): 1.417 and 1.4114 and 1.411
normalized emission ratio of biosensor expressed in E. coli ([4]; time 70 min): 1.41 and 1.402 and 1.422
normalized emission ratio of biosensor expressed in E. coli ([4]; time 75 min): 1.393 and 1.405 and 1.423
normalized emission ratio of biosensor expressed in E. coli ([4]; time 80 min): 1.412 and 1.416 and 1.423
normalized emission ratio of biosensor expressed in E. coli ([4]; time 85 min): 1.389 and 1.408 and 1.4341
normalized emission ratio of biosensor expressed in E. coli ([4]; time 90 min): 1.404 and 1.406 and 1.429
Normalized emission ratio [5]: 1.4262 and 1.43 and 1.452
